Test results reported in patent US20120122860A1, “SOLID FORMS OF SULFONAMIDES AND AMINO ACIDS” (Plexxikon, Inc., priority 2009, published 2012).
pIC50: −log10 of the molar value.

Legend:
B-Raf = B-Raf (Homo sapiens, UniProt P15056); test: Kinase activity assay, B-Raf; format: biochemical; conditions: read-out: activity toward kinase B-Raf, IC50
Kit = Kit (Homo sapiens, UniProt P10721); test: Kinase activity assay, Kit
Btk = Btk (Homo sapiens, UniProt Q06187); test: Kinase activity assay, Btk
Fms = Fms (Homo sapiens, UniProt P07333); test: Kinase activity assay, Fms
Chain of Fms (P07333 20-972): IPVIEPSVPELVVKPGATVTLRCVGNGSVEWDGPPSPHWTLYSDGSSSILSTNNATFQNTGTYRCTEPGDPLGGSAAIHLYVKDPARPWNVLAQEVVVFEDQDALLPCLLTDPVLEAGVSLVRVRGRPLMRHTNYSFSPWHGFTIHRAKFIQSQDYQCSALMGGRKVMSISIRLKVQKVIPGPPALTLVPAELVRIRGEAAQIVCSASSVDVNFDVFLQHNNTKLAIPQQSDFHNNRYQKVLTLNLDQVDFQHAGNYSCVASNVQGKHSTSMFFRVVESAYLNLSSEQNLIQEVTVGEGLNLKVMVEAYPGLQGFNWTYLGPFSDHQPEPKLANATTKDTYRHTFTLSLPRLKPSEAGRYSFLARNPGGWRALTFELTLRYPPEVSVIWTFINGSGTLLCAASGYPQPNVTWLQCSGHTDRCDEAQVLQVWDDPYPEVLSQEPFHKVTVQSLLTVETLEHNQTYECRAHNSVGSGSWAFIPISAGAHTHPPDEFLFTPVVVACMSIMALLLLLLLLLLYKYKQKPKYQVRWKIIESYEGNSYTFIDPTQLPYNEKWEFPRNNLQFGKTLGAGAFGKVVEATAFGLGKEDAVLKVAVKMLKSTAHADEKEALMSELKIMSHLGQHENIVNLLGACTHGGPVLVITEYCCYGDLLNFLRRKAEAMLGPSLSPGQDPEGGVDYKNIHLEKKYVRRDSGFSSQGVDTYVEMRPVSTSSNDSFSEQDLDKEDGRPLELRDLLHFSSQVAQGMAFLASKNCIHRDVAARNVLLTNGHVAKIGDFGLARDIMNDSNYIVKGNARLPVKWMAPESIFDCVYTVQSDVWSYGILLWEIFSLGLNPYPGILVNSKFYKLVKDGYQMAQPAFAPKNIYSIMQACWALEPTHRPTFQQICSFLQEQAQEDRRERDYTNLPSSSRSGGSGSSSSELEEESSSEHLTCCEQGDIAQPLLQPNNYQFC

PI3Kα = PI3Kα (Homo sapiens, UniProt P42336); test: Kinase activity assay, PI3Kα
C-Raf = C-Raf (Homo sapiens, UniProt P04049); test: Kinase activity assay, C-Raf
Chain of C-Raf (P04049 whole entry): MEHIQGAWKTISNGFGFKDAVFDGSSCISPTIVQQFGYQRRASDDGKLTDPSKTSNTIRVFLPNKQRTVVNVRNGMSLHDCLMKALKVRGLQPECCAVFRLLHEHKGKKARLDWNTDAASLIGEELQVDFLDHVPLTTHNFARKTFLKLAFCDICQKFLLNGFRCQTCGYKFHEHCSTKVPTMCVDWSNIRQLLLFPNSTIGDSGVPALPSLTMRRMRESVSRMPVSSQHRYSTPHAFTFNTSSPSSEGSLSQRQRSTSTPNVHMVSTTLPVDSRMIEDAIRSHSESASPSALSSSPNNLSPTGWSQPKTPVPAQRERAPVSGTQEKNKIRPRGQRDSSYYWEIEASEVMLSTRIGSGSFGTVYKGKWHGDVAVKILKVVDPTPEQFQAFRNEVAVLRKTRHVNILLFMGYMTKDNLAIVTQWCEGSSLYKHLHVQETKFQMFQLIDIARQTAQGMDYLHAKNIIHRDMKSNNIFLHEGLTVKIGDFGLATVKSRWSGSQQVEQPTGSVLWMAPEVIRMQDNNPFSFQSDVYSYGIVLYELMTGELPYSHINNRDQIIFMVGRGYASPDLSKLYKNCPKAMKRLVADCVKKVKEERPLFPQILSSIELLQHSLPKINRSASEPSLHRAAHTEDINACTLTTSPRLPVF

B-Raf V600E = B-Raf V600E (Homo sapiens, UniProt P15056, V600E); test: Kinase activity assay, B-Raf V600E; format: biochemical; conditions: read-out: activity toward kinase B-Raf V600E, IC50
Chain of B-Raf V600E (P15056 whole entry V600E): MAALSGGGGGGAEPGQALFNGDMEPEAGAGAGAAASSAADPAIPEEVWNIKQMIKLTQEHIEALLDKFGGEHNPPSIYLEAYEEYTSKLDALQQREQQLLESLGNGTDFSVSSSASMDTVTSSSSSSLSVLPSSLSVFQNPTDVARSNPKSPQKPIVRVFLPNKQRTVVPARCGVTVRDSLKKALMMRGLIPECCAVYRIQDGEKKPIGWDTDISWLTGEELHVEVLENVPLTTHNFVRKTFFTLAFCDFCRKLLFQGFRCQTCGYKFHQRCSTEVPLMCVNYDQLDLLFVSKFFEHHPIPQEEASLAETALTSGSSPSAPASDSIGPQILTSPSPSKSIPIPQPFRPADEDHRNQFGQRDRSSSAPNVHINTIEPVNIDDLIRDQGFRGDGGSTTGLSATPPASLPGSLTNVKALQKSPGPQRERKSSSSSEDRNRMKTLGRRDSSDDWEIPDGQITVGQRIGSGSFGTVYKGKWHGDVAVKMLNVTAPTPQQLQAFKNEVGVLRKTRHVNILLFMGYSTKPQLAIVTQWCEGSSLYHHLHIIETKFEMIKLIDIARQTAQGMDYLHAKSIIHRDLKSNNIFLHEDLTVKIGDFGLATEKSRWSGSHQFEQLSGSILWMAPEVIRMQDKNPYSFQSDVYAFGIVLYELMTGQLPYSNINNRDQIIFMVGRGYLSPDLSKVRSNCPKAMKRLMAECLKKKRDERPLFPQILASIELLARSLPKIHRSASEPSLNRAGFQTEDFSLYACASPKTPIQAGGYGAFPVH

Src = Src (Homo sapiens, UniProt P12931); test: Kinase activity assay, Src
Chain of Src (P12931 whole entry): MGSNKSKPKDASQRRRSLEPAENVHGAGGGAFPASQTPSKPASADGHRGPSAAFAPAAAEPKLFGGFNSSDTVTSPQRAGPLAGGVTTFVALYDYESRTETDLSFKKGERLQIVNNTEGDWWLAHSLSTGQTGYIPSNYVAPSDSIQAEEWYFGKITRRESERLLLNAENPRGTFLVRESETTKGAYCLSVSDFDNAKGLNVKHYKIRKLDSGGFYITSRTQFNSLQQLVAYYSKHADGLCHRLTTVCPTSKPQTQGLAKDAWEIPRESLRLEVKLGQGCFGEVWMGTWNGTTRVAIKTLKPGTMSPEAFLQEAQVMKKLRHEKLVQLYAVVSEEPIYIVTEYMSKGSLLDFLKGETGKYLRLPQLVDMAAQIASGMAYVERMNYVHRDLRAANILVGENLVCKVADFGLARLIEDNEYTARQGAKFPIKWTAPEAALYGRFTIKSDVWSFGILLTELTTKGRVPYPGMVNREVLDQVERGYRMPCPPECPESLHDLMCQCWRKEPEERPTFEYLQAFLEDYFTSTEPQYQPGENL

Kdr = Kdr (Homo sapiens, UniProt P35968); test: Kinase activity assay, Kdr
Chain of Kdr (P35968 20-1356): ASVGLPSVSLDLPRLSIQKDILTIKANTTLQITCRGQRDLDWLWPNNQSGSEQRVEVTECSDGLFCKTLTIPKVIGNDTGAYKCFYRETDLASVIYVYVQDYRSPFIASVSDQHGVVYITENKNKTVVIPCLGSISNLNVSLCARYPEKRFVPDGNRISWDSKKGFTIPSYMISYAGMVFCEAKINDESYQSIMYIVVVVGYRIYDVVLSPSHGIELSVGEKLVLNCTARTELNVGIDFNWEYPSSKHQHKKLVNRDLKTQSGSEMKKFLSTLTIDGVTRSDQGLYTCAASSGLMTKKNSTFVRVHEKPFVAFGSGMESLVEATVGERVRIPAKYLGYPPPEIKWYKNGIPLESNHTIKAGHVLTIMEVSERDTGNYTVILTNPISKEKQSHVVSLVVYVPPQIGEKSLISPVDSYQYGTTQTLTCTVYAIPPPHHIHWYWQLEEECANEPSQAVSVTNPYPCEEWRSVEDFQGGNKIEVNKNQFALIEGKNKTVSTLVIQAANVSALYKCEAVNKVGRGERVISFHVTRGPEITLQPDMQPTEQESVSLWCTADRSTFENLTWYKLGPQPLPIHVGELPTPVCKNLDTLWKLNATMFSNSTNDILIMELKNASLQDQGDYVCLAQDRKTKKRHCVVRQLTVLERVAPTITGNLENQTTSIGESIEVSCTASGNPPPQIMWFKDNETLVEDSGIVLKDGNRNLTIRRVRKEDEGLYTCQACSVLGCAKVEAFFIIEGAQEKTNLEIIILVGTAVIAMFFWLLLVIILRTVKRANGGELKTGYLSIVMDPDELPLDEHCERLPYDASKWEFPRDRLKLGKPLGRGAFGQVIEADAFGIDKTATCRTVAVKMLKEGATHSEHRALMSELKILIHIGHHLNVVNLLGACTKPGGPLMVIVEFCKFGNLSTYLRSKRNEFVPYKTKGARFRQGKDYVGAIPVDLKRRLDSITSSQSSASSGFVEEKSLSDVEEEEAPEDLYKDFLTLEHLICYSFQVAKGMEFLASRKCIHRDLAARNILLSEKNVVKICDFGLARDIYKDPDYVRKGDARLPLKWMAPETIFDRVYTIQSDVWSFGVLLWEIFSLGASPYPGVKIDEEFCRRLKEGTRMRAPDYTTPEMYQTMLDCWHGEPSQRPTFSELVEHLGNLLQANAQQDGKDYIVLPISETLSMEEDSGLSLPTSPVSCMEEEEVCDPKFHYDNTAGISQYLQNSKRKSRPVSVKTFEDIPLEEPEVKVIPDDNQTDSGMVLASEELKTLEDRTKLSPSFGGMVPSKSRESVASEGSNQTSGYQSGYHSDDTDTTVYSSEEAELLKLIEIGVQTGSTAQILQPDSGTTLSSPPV

TEC = biological target: T1, TEC (Homo sapiens, UniProt P42680); test: Kinase activity assay, TEC
T1 sequence (P42680 1-631): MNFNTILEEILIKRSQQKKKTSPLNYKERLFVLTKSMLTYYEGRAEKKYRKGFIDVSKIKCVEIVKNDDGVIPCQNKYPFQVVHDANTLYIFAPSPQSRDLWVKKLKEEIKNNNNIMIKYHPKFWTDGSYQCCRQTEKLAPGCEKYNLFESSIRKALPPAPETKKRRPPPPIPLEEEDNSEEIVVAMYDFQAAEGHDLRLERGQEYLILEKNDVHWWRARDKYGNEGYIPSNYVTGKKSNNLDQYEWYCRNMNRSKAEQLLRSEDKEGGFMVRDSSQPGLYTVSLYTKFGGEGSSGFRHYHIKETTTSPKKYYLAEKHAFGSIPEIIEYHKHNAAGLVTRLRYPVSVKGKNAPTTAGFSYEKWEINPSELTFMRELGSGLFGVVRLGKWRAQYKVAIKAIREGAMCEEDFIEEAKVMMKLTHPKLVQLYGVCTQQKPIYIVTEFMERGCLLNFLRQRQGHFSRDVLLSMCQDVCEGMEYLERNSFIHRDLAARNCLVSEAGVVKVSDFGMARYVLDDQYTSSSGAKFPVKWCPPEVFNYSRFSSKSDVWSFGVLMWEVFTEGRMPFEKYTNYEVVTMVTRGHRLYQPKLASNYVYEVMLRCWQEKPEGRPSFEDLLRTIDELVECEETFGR

MAP4K4 = MAP4K4 (Homo sapiens, UniProt O95819); test: Kinase activity assay, MAP4K4

Measured: pIC50

Chain of Btk (Q06187 whole entry): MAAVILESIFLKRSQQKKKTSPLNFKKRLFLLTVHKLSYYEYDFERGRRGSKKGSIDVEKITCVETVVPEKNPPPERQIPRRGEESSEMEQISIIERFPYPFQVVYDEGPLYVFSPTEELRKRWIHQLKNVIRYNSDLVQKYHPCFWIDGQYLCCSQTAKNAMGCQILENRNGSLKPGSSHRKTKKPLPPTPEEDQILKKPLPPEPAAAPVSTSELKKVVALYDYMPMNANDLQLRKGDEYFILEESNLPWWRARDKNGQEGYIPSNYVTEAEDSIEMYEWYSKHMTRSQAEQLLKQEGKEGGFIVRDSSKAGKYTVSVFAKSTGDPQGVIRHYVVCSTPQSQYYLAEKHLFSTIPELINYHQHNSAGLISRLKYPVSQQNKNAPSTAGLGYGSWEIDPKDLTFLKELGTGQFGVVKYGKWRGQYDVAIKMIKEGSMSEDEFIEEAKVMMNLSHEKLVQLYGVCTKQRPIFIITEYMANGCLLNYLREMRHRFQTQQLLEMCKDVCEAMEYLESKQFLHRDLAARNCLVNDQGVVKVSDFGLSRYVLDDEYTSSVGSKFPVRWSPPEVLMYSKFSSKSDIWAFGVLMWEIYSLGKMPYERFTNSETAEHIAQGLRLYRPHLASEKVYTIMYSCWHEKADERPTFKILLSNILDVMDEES
Chain of B-Raf (P15056 whole entry): as the sequence (P15056 whole entry V600E) above, with E600V counted along it

COc1ncc(-c2cnc3[nH]cc(C(=O)c4c(F)ccc(NS(=O)(=O)C5CCCCC5)c4F)c3c2)cn1 [P-2371, Cyclohexanesulfonic acid {2,4-difluoro-3-[5-(2-methoxy-pyrimidin-5-yl)-1H-pyrrolo[2,3-b]pyridine-3-carbonyl]-phenyl}-amide]
not listed: MAP4K4
≥ 5.00: all other assays above

COc1ncc(-c2cnc3[nH]cc(C(=O)c4c(F)ccc(NS(=O)(=O)CC(C)C)c4F)c3c2)cn1 [P-2322, 2-Methyl-propane-1-sulfonic acid {2,4-difluoro-3-[5-(2-methoxy-pyrimidin-5-yl)-1H-pyrrolo[2,3-b]pyridine-3-carbonyl]-phenyl}-amide]
not listed: MAP4K4
≥ 5.00: all other assays above

CS(=O)(=O)Nc1cccc(-c2cnc3[nH]cc(C(=O)c4cc(NS(=O)(=O)c5cccnc5)ccc4F)c3c2)c1 [P-2139, Pyridine-3-sulfonic acid {4-fluoro-3-[5-(3-methanesulfonylamino-phenyl)-1H-pyrrolo[2,3-b]pyridine-3-carbonyl]-phenyl}-amide]
≥ 5.00: all assays above

CS(=O)(=O)Nc1cccc(-c2cnc3[nH]cc(C(=O)c4cccc(NS(=O)(=O)c5cccnc5)c4)c3c2)c1 [P-2145, Pyridine-3-sulfonic acid {3-[5-(3-methanesulfonylamino-phenyl)-1H-pyrrolo[2,3-b]pyridine-3-carbonyl]-phenyl}-amide]
not listed: C-Raf | B-Raf V600E
≥ 5.00: all other assays above

COc1ncc(-c2cnc3[nH]cc(C(=O)c4c(F)ccc(NS(=O)(=O)c5cc(F)ccc5F)c4F)c3c2)cn1 [P-2042, N-{2,4-Difluoro-3-[5-(2-methoxy-pyrimidin-5-yl)-1H-pyrrolo[2,3-b]pyridine-3-carbonyl]-phenyl}-2,5-difluoro-benzenesulfonamide]
not listed: MAP4K4
≥ 5.00: all other assays above

COc1ncc(-c2cnc3[nH]cc(C(=O)c4c(F)ccc(NS(=O)(=O)c5ccc(F)cc5F)c4F)c3c2)cn1 [P-2044, N-{2,4-Difluoro-3-[5-(2-methoxy-pyrimidin-5-yl)-1H-pyrrolo[2,3-b]pyridine-3-carbonyl]-phenyl}-2,4-difluoro-benzenesulfonamide]
not listed: MAP4K4
≥ 5.00: all other assays above

CCN(CC)S(=O)(=O)Nc1ccc(F)c(C(=O)c2c[nH]c3ncc(-c4cnc(OC)nc4)cc23)c1F [P-2401, N,N-diethylamino-sulfonic acid {2,4-difluoro-3-[5-(2-methoxy-pyrimidin-5-yl)-1H-pyrrolo[2,3-b]pyridine-3-carbonyl]-phenyl}-amide]
not listed: B-Raf | Fms | MAP4K4
≥ 5.00: all other assays above

COc1ncc(-c2cnc3[nH]cc(C(=O)c4c(F)ccc(NS(=O)(=O)c5c(F)cccc5F)c4F)c3c2)cn1 [P-2043, N-{2,4-Difluoro-3-[5-(2-methoxy-pyrimidin-5-yl)-1H-pyrrolo[2,3-b]pyridine-3-carbonyl]-phenyl}-2,6-difluoro-benzenesulfonamide]
not listed: MAP4K4
≥ 5.00: all other assays above

CCC(C)S(=O)(=O)Nc1ccc(F)c(C(=O)c2c[nH]c3ncc(-c4cnc(OC)nc4)cc23)c1F (stereo not shown) [P-2323, Butane-2-sulfonic acid {2,4-difluoro-3-[5-(2-methoxy-pyrimidin-5-yl)-1H-pyrrolo[2,3-b]pyridine-3-carbonyl]-phenyl}-amide]
not listed: Kit | Fms | MAP4K4
≥ 5.00: all other assays above

COc1ncc(-c2cnc3[nH]cc(C(=O)c4c(F)ccc(NS(=O)(=O)c5ccccc5F)c4F)c3c2)cn1 [P-2041, N-{2,4-Difluoro-3-[5-(2-methoxy-pyrimidin-5-yl)-1H-pyrrolo[2,3-b]pyridine-3-carbonyl]-phenyl}-2-fluoro-benzenesulfonamide]
not listed: Fms | MAP4K4
≥ 5.00: all other assays above

COc1ncc(-c2cnc3[nH]cc(C(=O)c4c(F)ccc(NS(=O)(=O)C5CCCC5)c4F)c3c2)cn1 [P-2372, Cyclopentanesulfonic acid {2,4-difluoro-3-[5-(2-methoxy-pyrimidin-5-yl)-1H-pyrrolo[2,3-b]pyridine-3-carbonyl]-phenyl}-amide]
not listed: Fms | MAP4K4
≥ 5.00: all other assays above

COc1ncc(-c2cnc3[nH]cc(C(=O)c4c(F)ccc(NS(=O)(=O)C(C)C)c4F)c3c2)cn1 [P-2287, Propane-2-sulfonic acid {2,4-difluoro-3-[5-(2-methoxy-pyrimidin-5-yl)-1H-pyrrolo[2,3-b]pyridine-3-carbonyl]-phenyl}-amide]
not listed: Kit | Fms | MAP4K4
≥ 5.00: all other assays above
